Five compounds from patent US7186840B2, “Quinoline derivatives as anti-inflammatory agents” (Roche Palo Alto LLC, priority 2000, dated 2007) can be followed below.

Broadly, the pIC50 is −log10 of the IC50, conventionally taken in molar units.

In one assay the target is T1, COX II (Homo sapiens, UniProt P35354).
T1 construct: made in house
T1 sequence (P35354 18-604): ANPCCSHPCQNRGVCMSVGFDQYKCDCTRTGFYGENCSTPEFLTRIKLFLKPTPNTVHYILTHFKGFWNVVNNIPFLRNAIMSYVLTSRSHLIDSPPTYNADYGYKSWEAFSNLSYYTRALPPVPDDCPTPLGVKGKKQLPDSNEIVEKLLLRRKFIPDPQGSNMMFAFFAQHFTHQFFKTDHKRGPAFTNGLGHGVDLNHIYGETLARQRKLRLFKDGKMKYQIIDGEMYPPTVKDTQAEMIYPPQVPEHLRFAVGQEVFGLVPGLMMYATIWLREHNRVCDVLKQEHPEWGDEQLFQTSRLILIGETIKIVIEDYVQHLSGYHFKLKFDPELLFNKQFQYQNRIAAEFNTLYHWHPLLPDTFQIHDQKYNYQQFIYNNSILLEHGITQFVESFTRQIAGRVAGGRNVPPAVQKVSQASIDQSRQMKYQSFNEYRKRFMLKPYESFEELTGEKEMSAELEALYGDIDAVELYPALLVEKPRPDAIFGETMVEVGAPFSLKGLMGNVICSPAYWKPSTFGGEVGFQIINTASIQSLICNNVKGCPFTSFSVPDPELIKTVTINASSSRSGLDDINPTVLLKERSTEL
The experiment in a line: Inhibition of COX II in vitro (radiometric assay). The format is biochemical. The conditions noted are these: partially purified enzyme, 10 min preincubation, 20 micromolar [14C]arachidonic acid. How it is done:
(§1) The COX I and COX II inhibitory activity of compounds of this invention in vitro was determined using partially purified COX I and COX II enzymes, prepared as described in J. Barnett et. al., Biochim Biophys. Acta, 1209, 130–139 (1994).
(§2) COX I and COX II samples were diluted with Tris-HCl buffer (50 mM Tris-HCl, pH 7.9) containing 2 mM EDTA and 10% glycerol and reconstituted by incubating first with 2 mM phenol for 5 minutes and then with 1 micromolar hematin for an additional 5 minutes. 125 μl of the reconstituted COX I or COX II enzyme were preincubated for 10 minutes at room temperature in a shaking water bath with the compounds of the invention dissolved in 2–15 μl of DMSO or the carrier vehicles (control samples). The enzyme reaction was initiated by adding 25 μl of 1-[14 C]arachidonic acid (80,000–100,000 cpm/tube; 20 micromolar final concentration) and the reaction was allowed to continue for an additional 45 seconds. The reaction was terminated by adding 100 μl of 2N HCl and 750 μl water. An aliquot (950 μl) of the reaction mixture was loaded onto a 1 mL C18 Sep-Pak column (J. T. Baker, Phillipsburg, N.J.) which had been previously washed with 2–3 mL methanol and equilibrated with 5–6 mL distilled water. Oxygenated products were quantitatively eluted with 3 mL of acetonitrile/water/acetic acid (50:50:0.1, v/v) and the radioactivity in the eluate determined in a scintillation counter.
(§3) The COX inhibitory activities (expressed as IC50, the concentration causing 50% inhibition of the COX enzyme being assayed) of some exemplary compounds of the invention were: […]

For a further assay, the target named is T2, COX I (Homo sapiens, UniProt P23219).
T2 construct: made in house
T2 sequence (P23219 24-599): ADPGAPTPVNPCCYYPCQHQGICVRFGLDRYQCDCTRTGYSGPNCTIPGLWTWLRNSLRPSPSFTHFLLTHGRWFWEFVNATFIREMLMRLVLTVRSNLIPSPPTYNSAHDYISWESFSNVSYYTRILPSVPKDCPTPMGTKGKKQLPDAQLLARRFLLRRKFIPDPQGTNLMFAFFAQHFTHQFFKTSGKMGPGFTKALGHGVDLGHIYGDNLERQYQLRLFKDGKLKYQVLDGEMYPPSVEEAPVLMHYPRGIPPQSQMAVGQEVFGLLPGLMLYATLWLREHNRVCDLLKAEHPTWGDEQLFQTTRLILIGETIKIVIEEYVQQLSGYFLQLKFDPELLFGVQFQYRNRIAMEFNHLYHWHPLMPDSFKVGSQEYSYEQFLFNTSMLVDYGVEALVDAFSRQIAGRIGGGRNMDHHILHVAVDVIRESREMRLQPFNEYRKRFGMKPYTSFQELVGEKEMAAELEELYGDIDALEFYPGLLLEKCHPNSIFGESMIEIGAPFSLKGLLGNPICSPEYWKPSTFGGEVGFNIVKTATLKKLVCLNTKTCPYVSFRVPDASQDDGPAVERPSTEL
In words: Inhibition of COX I in vitro (radiometric assay). The conditions noted are these: partially purified enzyme, 10 min preincubation, 20 micromolar [14C]arachidonic acid. The assay is classed as biochemical. How it is done:
as §1, §2, §3

pIC50: −log10 of the molar value.

`COc1ccc2nc(S(C)(=O)=O)ccc2c1Sc1ccc(F)cc1F` [Cpd 101, 5-(2,4-Difluoro-phenylsulfanyl)-2-methanesulfonyl-6-methoxy-quinoline]: the pIC50 is over 6.70 against COX II and under 4.40 against COX I.

In the case of `COc1ccc2nc(S(C)(=O)=O)ccc2c1Sc1ccccc1Cl` [Cpd 104, 5-(2-chloro-phenylsulfanyl)-2-methanesulfonyl-6-methoxy-quinoline], the pIC50 against COX II is over 6.70; on COX I, under 4.40.

For `COc1ccc2nc(S(C)(=O)=O)ccc2c1Sc1ccc(F)cc1Cl` [Cpd 105, 5-(2-chloro-4-fluoro-phenylsulfanyl)-2-methanesulfonyl-6-methoxy-quinoline], the figures for the pIC50 on COX II and against COX I were over 6.70 and under 4.40, respectively.

With `COc1ccc2nc(S(C)(=O)=O)ccc2c1Sc1ccc(Br)cc1` [Cpd 106, 5-(4-bromo-phenylsulfanyl)-2-methanesulfonyl-6-methoxy-quinoline], the pIC50 against COX II was over 6.52; against COX I it was under 4.40.

`COc1ccc2nc(S(C)(=O)=O)ccc2c1Sc1ccc(Cl)cc1Cl` [Cpd 107, 5-(2,4-dichloro-phenylsulfanyl)-2-methanesulfonyl-6-methoxy-quinoline]: the pIC50 against COX II is over 6.52; at COX I, under 4.40.
